In patent US10696692B2, “Amido-benzyl sulfone and sulfoxide derivates” (Forma TM, LLC, priority 2012, dated 2020):
Where two headings read alike, the source gives them in different places.

Key:
NAMPT = NAMPT (Homo sapiens (Human), UniProt P43490); assay: Assay 1: Biochemical Inhibition Assay (NAMPT enzymatic reaction, NMN quantified by mass spectrometry); conditions: read-out: Biochemical (IC50);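 also: recombinant His-tagged human NAMPT preincubated with compound 15 min, then reacted 30 min at rt with 1 µM NAM, 100 µM PRPP, 2.5 mM ATP, NMN product read by RapidFire MS, normalized to L-Cystathionine internal standard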
Sequence of NAMPT (P43490 whole entry): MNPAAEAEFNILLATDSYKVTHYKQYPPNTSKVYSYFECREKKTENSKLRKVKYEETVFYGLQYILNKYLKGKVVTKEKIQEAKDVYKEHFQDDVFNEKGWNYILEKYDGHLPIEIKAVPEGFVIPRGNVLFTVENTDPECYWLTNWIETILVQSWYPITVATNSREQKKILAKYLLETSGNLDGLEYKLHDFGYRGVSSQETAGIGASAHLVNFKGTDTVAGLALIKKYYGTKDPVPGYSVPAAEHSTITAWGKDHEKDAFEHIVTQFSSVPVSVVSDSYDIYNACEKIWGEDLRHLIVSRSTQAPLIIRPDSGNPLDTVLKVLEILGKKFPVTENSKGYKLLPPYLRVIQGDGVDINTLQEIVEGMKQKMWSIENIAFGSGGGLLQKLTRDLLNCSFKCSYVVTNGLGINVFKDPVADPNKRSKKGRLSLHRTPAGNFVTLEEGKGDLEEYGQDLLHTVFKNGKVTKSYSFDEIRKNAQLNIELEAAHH

A2780 cells = assay: Assay 2: In-Vitro Cell Proliferation Assay (A2780 cells, SRB readout, 72 hours); assay type: cell-based; conditions: A2780 cells, 72 hours, SRB, read-out: Cell Proliferation (IC50);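 also: viable cells counted via sulforhodamine B staining, absorbance at 570 nm, after 72 h exposure at 37 °C, DMSO 0.1% as control, media-only background subtracted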

| Compound | IC50 (NAMPT) [nM] | IC50 (A2780 cells) [nM] | IC50 (A2780 cells; Homo sapiens, A2780, 72 h) [nM] |
| --- | --- | --- | --- |
| O=C(NCc1ccc(S(=O)(=O)C2CCN(CC(F)(F)F)CC2)cc1)c1cc2ccncc2o1 [Example 67, Furo[2,3-c]pyridine-2-carboxylic acid 4-[1-(2,2,2-trifluoro-ethyl)-piperidine-4-sulfonyl]-benzylamide] | 13.5 | 5.4 | – |
| O=C(NCc1ccc(S(=O)(=O)C2CCCOC2)cc1)c1cnc2[nH]ncc2c1 (stereo not shown) [Example 267, N-[(4-tetrahydropyran-3-ylsulfonylphenyl)methyl]-1H-pyrazolo[3,4-b]pyridine-5-carboxamide] | 219 | – | 176 |
| O=C(NCc1ccc(S(=O)(=O)N2CCCCC2)cc1)c1ccn2nccc2c1 [Example 48, Pyrazolo[1,5-a]pyridine-5-carboxylic acid 4-(piperidine-1-sulfonyl)-benzylamide] | 46.1 | – | 2000 |
| O=C(NCc1ccc(S(=O)(=O)C2CCNCC2)cc1)c1cnc2[nH]ncc2c1 [Example 203, N-[[4-(4-piperidylsulfonyl)phenyl]methyl]-1H-pyrazolo[3,4-b]pyridine-5-carboxamide] | 669 | – | 731 |
| O=C(NCc1ccc(S(=O)(=O)N2CCCCC2)cc1)c1cn2[nH]ccc2n1 [Example 1, 5H-Imidazo[1,2-b]pyrazole-2-carboxylic acid 4-(piperidine-1-sulfonyl)-benzylamide] | 8100 | – | 19100 |
| O=C(NCc1ccc([S+]([O-])C2CCN(CC(F)(F)F)CC2)cc1)N1Cc2ccncc2C1 (stereo not shown) [Example 376, N-[[4-[[1-(2,2,2-tnfluoroethyl)-4-piperidyl]sulfinyl]phenyl]methyl]-1,3-dihydropyrrolo[3,4-c]pyridine-2-carboxamide] | 5.82 | – | 8.54 |
| COCCN1CCN(S(=O)(=O)c2ccc(CNC(=O)c3cnc4[nH]ncc4c3)cc2)CC1 [Example 173, 1H-Pyrazolo[3,4-b]pyridine-5-carboxylic acid 4-[4-(2-methoxy-ethyl)-piperazine-1-sulfonyl]-benzylamide] | 183 | – | 86.2 |
| O=C(NCc1ccc([S+]([O-])C2CCN(CC(F)(F)F)CC2)cc1)c1ccc2nccn2c1 (stereo not shown) [Example 364, N-[[4-[[1-(2,2,2-tnfluoroethyl)-4-piperidyl]sulfinyl]phenyl]methyl]imidazo[1,2-a]pyridine-6-carboxamide] | 2.93 | – | 3.51 |
| O=C(NCc1ccc(S(=O)(=O)N2CCOCC2)cc1)c1ccc2nccn2c1 [Example 10, Imidazo[1,2-a]pyridine-6-carboxylic acid 4-(morpholine-4-sulfonyl)-benzylamide] | 25.1 | – | 14.8 |
| CC(C)(C)OC(=O)N1CCC2(CCCN2S(=O)(=O)c2ccc(CNC(=O)c3ccc4nccn4c3)cc2)C1 (stereo not shown) [Example 237, tert-butyl 1-[4-[(imidazo[1,2-a]pyridine-6-carbonylamino)methyl]phenyl] sulfonyl-1,7-diazaspiro[4.4]nonane-7-carboxylate] | 109 | – | 38.8 |
| O=C(NCc1ccc(S(=O)(=O)N2CC(F)(F)C2)cc1)c1cc2ccncc2o1 [Example 301, N-[[4-(3,3-difluoroazetidin-1-yl)sulfonylphenyl]methyl]furo [2,3-c]pyridine-2-carboxamide] | 46.7 | – | 83.6 |
| CCCC(=O)N1CCC(S(=O)(=O)c2ccc(CNC(=O)c3cc4ccncc4o3)cc2)CC1 [Example 314, N-[[4-[(1-butanoyl-4-piperidyl)sulfonyl]phenyl]methyl]furo[2,3-c]pyridine-2-carboxamide] | 20.3 | – | 51.9 |
| N[C@H]1C[C@H]2CC[C@@H](C1)N2S(=O)(=O)c1ccc(CNC(=O)c2cc3ccncc3s2)cc1 [Example 44, Thieno[2,3-c]pyridine-2-carboxylic acid 4-((1R,3R,5S)-3-amino-8-aza-bicyclo[3.2.1]octane-8-sulfonyl)-benzylamide] | 5.8 | – | 23.2 |
| CN1CCN(C2CCN(S(=O)(=O)c3ccc(CNC(=O)c4ccc5nccn5c4)cc3)CC2)CC1 [Example 110, Imidazo[1,2-a]pyridine-6-carboxylic acid 4-[4-(4-methyl-piperazin-1-yl)-piperidine-1-sulfonyl]-benzylamide] | 3.1 | – | 3.3 |
| O=C(NCc1ccc(S(=O)(=O)C2CCCOC2)cc1)c1ccc2nccn2c1 (racemic) [Example 169, Imidazo[1,2-a]pyridine-6-carboxylic acid 4-(tetrahydro-pyran-3-sulfonyl)-benzylamide] | 32.9 | – | 19.9 |
| NC12CC1CN(S(=O)(=O)c1ccc(CNC(=O)c3ccc4nccn4c3)cc1)C2 (stereo not shown) [Example 320, N-[[4-[(5-amino-3-azabicyclo[3.1.0]hexan-3-yl)sulfonyl]phenyl]methyl] imidazo[1,2-a]pyridine-6-carboxamide] | 68.7 | – | 61.9 |
| C[C@@H]1CN(S(=O)(=O)c2ccc(CNC(=O)c3ccc4nccn4c3)cc2)C[C@H]1O (racemic) [Example 139, trans-Imidazo[1,2-a]pyridine-6-carboxylic acid 4-(3-hydroxy-4-methyl-pyrrolidine-1-sulfonyl)-benzylamide] | 14.5 | – | 10.3 |

| Compound | IC50 (NAMPT) [nM] | IC50 (A2780 cells) [nM] | IC50 (A2780 cells; Homo sapiens, A2780, 72 h) [nM] |
| --- | --- | --- | --- |
| O=C(NCc1ccc(S(=O)(=O)N2C[C@H]3C[C@@H]2C3)cc1)c1ccc2nccn2c1 [Example 159, Imidazo[1,2-a]pyridine-6-carboxylic acid 4-(2-aza-bicyclo[2.1.1]hexane-2-sulfonyl)-benzylamide] | 12 | – | 13.3 |
| O=C(NCc1ccc(S(=O)(=O)N2CCC3(CCCO3)C2)cc1)c1cnc2[nH]ncc2c1 (stereo not shown) [Example 284, N-[[4-(1-oxa-7-azaspiro[4.4]nonan-7-ylsulfonyl)phenyl]methyl]-1H-pyrazolo[3,4-b]pyridine-5-carboxamide] | 70.9 | – | 42.9 |
| CC(C)(C)OC(=O)N1CCC2(CC1)CCN(S(=O)(=O)c1ccc(CNC(=O)c3ccc4nccn4c3)cc1)C2 [Example 235, tert-butyl 2-[4-[(imidazo[1,2-a]pyridine-6-carbonylamino)methyl]phenyl] sulfonyl-2,8-diazaspiro[4.5]decane-8-carboxylate] | 16.4 | – | 36.3 |
| C[C@@H]1CN(S(=O)(=O)c2ccc(CNC(=O)c3cc4ccncc4s3)cc2)C[C@H](C)N1 [Example 46, Thieno[2,3-c]pyridine-2-carboxylic acid 4-((3R,5S)-3,5-dimethyl-piperazine-1-sulfonyl)-benzylamide] | 43.5 | – | 4.4 |
| O=C(NCc1ccc(S(=O)(=O)C2CCN(CC(F)(F)F)CC2)cc1)c1cc2ccncc2o1 [Example 212, N-[[4-[[1-(2,2,2-trifluoroethyl)-4-piperidyl]sulfonyl]phenyl]methyl]furo[2,3-c]pyridine-2-carboxamide] | 13.5 | – | 5.35 |
| O=C(NCc1ccc(S(=O)(=O)N2CCCC3(CCCCN3)C2)cc1)c1ccc2nccn2c1 (stereo not shown) [Example 336, N-[[4-(1,8-diazaspiro[5.5]undecan-8-ylsulfonyl)phenyl]methyl] imidazo[1,2-a]pyridine-6-carboxamide] | 379 | 399 | – |
| O=C(NCc1ccc(S(=O)(=O)N2CCC(O)CC2)cc1)c1cc2ccncc2o1 [Example 38, Furo[2,3-c]pyridine-2-carboxylic acid 4-(4-hydroxy-piperidine-1-sulfonyl)-benzylamide] | 26.5 | – | 62.1 |
| CC(C)N1CCC([S+]([O-])c2ccc(CNC(=O)c3cc4cnccc4[nH]3)cc2)CC1 (stereo not shown) [Example 386, N-[[4-[(1-isopropyl-4-piperidyl)sulfinyl]phenyl]methyl]-1H-pyrrolo[3,2-c]pyridine-2-carboxamide] | 60 | – | 70.6 |
| CCCN1CCC([S+]([O-])c2ccc(CNC(=O)c3cnc4[nH]ncc4c3)cc2)CC1 (stereo not shown) [Example 378, N-[[4-[(1-propyl-4-piperidyl)sulfinyl]phenyl]methyl)-1H-pyrazolo[3,4-b]pyridine-5-carboxamide] | 594 | – | 143 |
| O=C(NCc1ccc(S(=O)(=O)C2CCN(C3CCOCC3)CC2)cc1)c1cnc2nccn2c1 [Example 78, Imidazo[1,2-a]pyrimidine-6-carboxylic acid 4-[1-(tetrahydro-pyran-4-yl)-piperidine-4-sulfonyl]-benzylamide] | 4 | 47.9 | – |
| tert-butyl 2-[4-[(imidazo[1,2- a]pyridine-6- carbonylamino)methyl]phenyl] sulfonyl-2,9- diazaspiro[4.5]decane-9- carboxylate [Example 242] | 6.34 | 2.99 | – |
| O=C(NCc1ccc(S(=O)(=O)N2CC3COCC3C2)cc1)c1cnc2[nH]ncc2c1 (stereo not shown) [Example 158, 1H-Pyrazolo[3,4-b]pyridine-5-carboxylic acid 4-(tetrahydro-furo[3,4-c]pyrrole-5-sulfonyl)-benzylamide] | – | – | 182 |
| CC(C)N1CCN(S(=O)(=O)c2ccc(CNC(=O)c3ccc4nccn4c3)cc2)CC1 [Example 18, Imidazo[1,2-a]pyridine-6-carboxylic acid 4-(4-isopropyl-piperazine-1-sulfonyl)-benzylamide] | – | – | 12.9 |
| CCN1CCC([S+]([O-])c2ccc(CNC(=O)c3ccc4nccn4c3)cc2)CC1 (stereo not shown) [Example 370, N-[[4-[(1-ethyl-4-piperidyl)sulfinyl]phenyl]methyl]imidazo[1,2-a]pyridine-6-carboxamide] | – | – | 13.4 |
| O=C(NCc1ccc(S(=O)(=O)N2CCC(N3CCCC3)CC2)cc1)c1cnc2[nH]ncc2c1 [Example 156, 1 H-Pyrazolo[3,4-b]pyridine-5-carboxylic acid 4-(4-pyrrolidin-1-yl-piperidine-1-sulfonyl)-benzylamide] | – | – | 35.1 |
| O=C(NCc1ccc(S(=O)(=O)N2CCCCC2)cc1)c1cnc2cn[nH]c2c1 [Example 49, 1H-Pyrazolo[4,3-b]pyridine-6-carboxylic acid 4-(piperidine-1-sulfonyl)-benzylamide] | 2000 | – | – |
